Experimental data as given in patent publication EP0369733A2, “Fluorescent indicator dyes for alkali metal cations, their preparation and use” (THE REGENTS OF THE UNIVERSITY OF CALIFORNIA, priority 1988, dated 1990).

Key:
[1] = Cation titration followed by absorbance or fluorescence excitation spectra: Na⁺ binding
Experimental: (§1) • Footnote a: For molecular structures, see Fig. 1. • Footnote b: Except where otherwise noted, these dissociation constants were measured with the chelator dissolved in 0.1 M tetramethylammonium chloride, at a pH held high enough with 1-5 mM tris(hydroxymethyl)aminomethane for protonation to be insignificant. The absorbance spectrum, or the fluorescence excitation spectrum for those compounds (2GG, 2NN, 2OO, 2PP, 3NN) with acronyms was measured as a function of the concentration of cation added as a solid or concentrated aqueous solution of the halide salt. No correction has been made for the changing ionic strength of the solution, which started from 0.1 M and increased, but the absorbances and fluorescence amplitudes were applied for dilution of the dye and any slight quenching due to high concentrations of Cl⁻. • Footnote c: These protonation constants were determined in 0.1 M tetramethylammonium chloride, 10 mM tris(hydroxymethyl)aminomethane, titrated with 5 M H₃PO₄ to successively lower pH values measured with a Radiometer PHM84 meter. […] The first number is the wavelength in nanometers, followed in parentheses by 10⁻³ x the corresponding extinction coefficient, M⁻¹cm⁻¹. […] Emission maxima are not corrected for the spectral sensitivity of the emission detection. Quantum efficiencies were measured (13) by comparing the integral of the corrected emission spectrum with the corresponding integral for a solution of quinine bisulfate in 1 N H₂SO₄ of matched absorbance at the excitation wavelength.
(§2) Affinities for other cations were usually measured by titrating aqueous solutions of the indicator with metal chlorides added either as solid or from concentrated stock solutions, taking care to minimize dilution and correct for it. A convenient way to mass-produce premeasured micromole to millimole aliquots of solid NaCl or KCl was to pipet saline solutions into polypropylene micro test tubes and evaporate the water in an oven. The standard ionic background was again 100 mM tetramethylammonium chloride, usually with a few mM of tris(hydroxymethyl)-aminomethane base to hold the pH high enough (pH 8-9) to insure that protonation was negligible. This convenient titration procedure had the slight disadvantage that the ionic strength was not constant, especially when large quantities of a salt had to be added due to weak affinities. […] When constant ionic strength was desired, the chelator was made up at identical concentrations in matched solutions of NaCl, KCl, or tetramethylammonium chloride, then these stocks were mixed in the desired proportions. All measurements were made at room temperature (22°, ±2° C).

[2] = Cation titration followed by absorbance or fluorescence excitation spectra: K⁺ binding; settings: inert background cations such as tetramethylammonium or Cs⁺, high pH
Experimental: as §1
Affinities for other cations were usually measured by titrating aqueous solutions of the indicator with metal chlorides added either as solid or from concentrated stock solutions, taking care to minimize dilution and correct for it. […] This convenient titration procedure had the slight disadvantage that the ionic strength was not constant, especially when large quantities of a salt had to be added due to weak affinities. […]

[3] = Cation titration followed by absorbance or fluorescence excitation spectra: Mg²⁺ binding; settings: 0.1 M tetramethylammonium chloride, 1-5 mM tris(hydroxymethyl)aminomethane, high pH, read-out: Dissociation constants (Kd) in mM for Mg²⁺
Experimental: as §1
as §2, with “proportions.” for “proportions. All measurements were made at room temperature (22°, ±2° C).”

[4] = Cation titration followed by absorbance or fluorescence excitation spectra: Li⁺ binding; settings: for Kd: 0.1 M tetramethylammonium chloride, 1-5 mM tris(hydroxymethyl)aminomethane, high pH, read-out: Dissociation constants (Kd) in mM for Li⁺
Experimental: as §1, §2

[5] = UV absorbance spectra without and with saturating cation; format: physicochemical
Experimental: as §1
(§3) UV absorbance spectra were recorded initially on a Cary 210 and later on a Perkin-Elmer Lambda Array 3840 spectrophotometer. Fluorescence excitation and emission spectra and quantum efficiencies were measured on a Spex Fluorolog 111 as described previously (13).

[6] = Fluorescence excitation/emission spectra and quantum efficiency; format: physicochemical; settings: for Quantum efficiency -Na⁺ / Quantum efficiency +Na⁺: relative to quinine bisulfate in 1 N H₂SO₄ (0.55); for Quantum efficiency +Na⁺: saturating Na⁺
Experimental: as §1, §3

[7] = Non-specific quenching of fluorescence by CsCl; format: physicochemical
Experimental: Selectivities of SBFP and SBFI against other cations are also adequate (Table I). […] Ratioing therefore not only normalizes for amount of dye in the optical path but also improves the discrimination against pH changes. […] Dissociation constants for Mg²⁺ and Ca²⁺ are high enough (about 60 mM and 38 mM respectively) for cytosolic levels of those ions to have insignificant effect. Curiously, Ca²⁺ is unique in causing a large hypsochromic shift of the emission peak, to 432 nm. All the above-mentioned salts except tetramethylammonium seem to cause a slight non-specific quenching of SBFI at very high concentrations. For example, CsCl causes no spectral shift at all, but 100, 200, and 500 mM CsCl depress the fluorescence by 9, 14, and 21% from the metal-free level. This effect is not a heavy-atom effect of Cs, since large excesses of Li⁺, Na⁺, and K⁺ also slightly quench their SBFI complexes. It may represent weak quenching by Cl⁻, since acetate and fluoride gave much less of the effect.

[8] = physchem; settings: 0.1 m tetramethylammonium chloride
Experimental: (§4) • Footnote a: For molecular structures, see Fig. 1. • Footnote b: Except where otherwise noted, these dissociation constants were measured with the chelator dissolved in 0.1 M tetramethylammonium chloride, at a pH held high enough with 1-5 mM tris(hydroxymethyl)aminomethane for protonation to be insignificant. […] No correction has been made for the changing ionic strength of the solution, which started from 0.1 M and increased, but the absorbances and fluorescence amplitudes were applied for dilution of the dye and any slight quenching due to high concentrations of Cl⁻. • Footnote c: These protonation constants were determined in 0.1 M tetramethylammonium chloride, 10 mM tris(hydroxymethyl)aminomethane, titrated with 5 M H₃PO₄ to successively lower pH values measured with a Radiometer PHM84 meter.
(§5) Proton dissociation constants of the chelators were measured by spectrophotometry or spectrofluorometry of buffered solutions, containing either 100 mM tetramethylammonium chloride as inert supporting electrolyte, or 121.5 mM K⁺, 13.5 mM Na⁺, and 1 mM Mg²⁺ to simulate the cation environment of vertebrate cytoplasm (14). Traces of UV-absorbing impurities in the tetramethylammonium chloride (Alfa Inorganics) were removed by filtration through acid-­washed activated charcoal. The concentration of the tetramethylammonium chloride was then measured by chloride titration, and the absence of significant Na⁺ contamination was verified with a sodium-selective glass electrode (Microelectrodes Inc.). When the chelators contained two protonatable nitrogens, the curve of absorbance or fluorescence versus pH was analyzed by computerized least-squares fitting to the equations for two arbitrary proton equilibria (15), with the added assumption that the two protonations each caused the same change in extinction coefficient or fluorescence.

[9] = physchem; settings: 126 mm kcl, 14 mm nacl
Experimental: The lowest curve ([Na⁺] = 0) was obtained with 5 µM SBFI in 130 mM KCl, 10 mM MOPS, KOH to pH 7.05, approximately 135 mM total K⁺. The highest curve ([Na⁺] = 135 mM) was analogously recorded from 5 µM SBFI in 130 mM NaCl, 10 mM MOPS, NaOH to pH 7.05. The intermediate curves from 1.35 to 94.5 mM Na⁺ were obtained by successively 1/100, 1/99, 3/98, 1/19, 1/9, 1/4, and 1/2 of the K⁺-rich SBFI solution by the SBFI in Na medium. The excitation bandwidth was 1.85 nm; emission was collected at 500 nm with 9.3 nm bandwidth. […] The lowest curve was obtained in 130 mM NaCl, 10 mM MOPS, NaOH to pH 7.05. The highest curve was in 130 mM KCl, 10 mM MOPS, KOH to pH 7.05. The intermediate curves with 13.5 to 112.5 mM K⁺ were obtained by iteratively replacing 1/10, 1/9, 1/6, 1/4, 1/3, and 1/2 of the low K⁺ medium by the 135 mM KCl solution of PBFP.
Proton dissociation constants of the chelators were measured by spectrophotometry or spectrofluorometry of buffered solutions, containing either 100 mM tetramethylammonium chloride as inert supporting electrolyte, or 121.5 mM K⁺, 13.5 mM Na⁺, and 1 mM Mg²⁺ to simulate the cation environment of vertebrate cytoplasm (14). […] When the chelators contained two protonatable nitrogens, the curve of absorbance or fluorescence versus pH was analyzed by computerized least-squares fitting to the equations for two arbitrary proton equilibria (15), with the added assumption that the two protonations each caused the same change in extinction coefficient or fluorescence. This assumption was based on the presence of two identical chromophores in each chelator and produced good fits to the experimental data.

[10] = Proton dissociation constants in 0.1 M tetramethylammonium chloride; settings: 10 mM Tris titrated with 5 M H₃PO₄
Experimental: as §4, §5

COc1cc2cc(-c3ccc(C(=O)O)cc3C(=O)O)oc2cc1N1CCOCCOCCN(c2cc3oc(-c4ccc(C(=O)O)cc4C(=O)O)cc3cc2OC)CCOCC1 [Compound 2PP, N,N-bis-(2-(2,4-dicarboxyphenyl)-5-methoxybenzofuran-6-yl)-diaza[15]-crown-5]
Kd ([1]; 0.1 M tetramethylammonium chloride, 1-5 mM tris(hydroxymethyl)aminomethane, pH high enough for protonation to be insignificant, 22°, read-out: Dissociation constants (Kd) in mM for Na⁺): 7.4 mM
Na⁺ affinity ([1]; association constant, inert background cation (tetramethylammonium)): 166 M⁻¹
Kd ([1]; summary statement, conditions not specified, read-out: dissociation constant (Na⁺), range achieved): 5 to 20 mM
K⁺ affinity [2]: 7 M⁻¹
Kd ([3]; listed as 2PP (SBFI)): 60 mM
Kd ([3]; listed as SBFI): ~60 mM
Li⁺ affinity [4]: 15 M⁻¹
Kd ([4]; listed as 2PP (SBFI)): 68 mM
Kd ([4]; listed as SBFI): 67 mM
Absorbance maxima -Na⁺ (wavelength) ([5]; 100 mM tetramethylammonium chloride plus 1-5 mM Tris, no Na⁺): 346 nanometers
Absorbance maxima +Na⁺ (wavelength) ([5]; enough NaCl added (0.2-1 M) to saturate the Na⁺ binding): 334 nanometers
Absorbance maxima -Na⁺ (extinction coefficient) ([5]; number is 10⁻³ x the extinction coefficient, lower limits for most compounds, no Na⁺): 42000 M⁻¹ cm⁻¹
Absorbance maxima +Na⁺ (extinction coefficient) ([5]; number is 10⁻³ x the extinction coefficient, lower limits, saturating NaCl (0.2-1 M)): 47000 M⁻¹ cm⁻¹
extinction coefficients ([5]; without to with Na⁺, in M-1·cm-1 (unit assumed)): 42,000-47,000
Emission maxima -Na⁺ ([6]; 100 mM tetramethylammonium chloride, no Na⁺, not corrected for detector sensitivity): 551 nanometers
emission peak with Ca²⁺ ([6]; Ca²⁺ bound, large hypsochromic shift): 432 nm
excitation peak wavelength without Na⁺ ([6]; Na⁺-K⁺ mixtures, sum 135 mM, K⁺ only): 344 nm
excitation peak wavelength with Na⁺ ([6]; Na⁺-K⁺ mixtures, sum 135 mM, Na⁺ bound): 336 nm
Quantum efficiency -Na⁺ ([6]; no Na⁺, listed as 2PP (SBFI)): .045
Quantum efficiency -Na⁺ ([6]; no Na⁺, listed as SBFI): 0.045
Emission maxima +Na⁺ ([6]; saturating NaCl, not corrected for detector sensitivity): 525 nanometers
Quantum efficiency +Na⁺ ([6]; listed as 2PP (SBFI)): .063
Quantum efficiency +Na⁺ ([6]; listed as SBFI): 0.08
depression of fluorescence from the metal-free level ([7]; 100 mM CsCl): 9%
depression of fluorescence from the metal-free level ([7]; 200 mM CsCl): 14%
depression of fluorescence from the metal-free level ([7]; 500 mM CsCl): 21%
pKa [8]: 6.1
pKa [9]: 6.09
pKa ([10]; first value printed (highest pKa, 1st proton), listed as 2PP (SBFI)): 5.89
pKa ([10]; second value (second protonation)): 5.19
